According to a melting point compilation (Tetko et al.):

SMILES	melting point
O=C1C(C(O)c2ccccc2)C(C(F)(F)F)=NN1c1ccccc1 (stereo not given)	258 °C
C[Si](C)(C)O[Si](C)(C)O[Si](C)(C)O[Si](C)(C)O[Si](C)(C)O[Si](C)(C)C	-59 °C
CC(=O)OCC12CC(OC(=O)CC(C)C)C(C)=CC1OC1C(O)C(OC(C)=O)C2(C)C12CO2 (stereo not given)	152 °C
C=CCNC(=S)NNC(=O)C(=O)c1c[nH]c2ccccc12	229 °C
COc1ccc(CC(N)C(=O)NC2C(CO)OC(n3cnc4c(N(C)C)ncnc43)C2O)cc1 (stereo not given)	176 °C
Cc1nc2ccccc2[nH]c1=O	270 °C
O=C(O)Cc1ccccc1C(F)(F)F	100 to 102 °C
NNC(=O)c1ccccc1	115 °C
CC(=O)c1cnccn1	77 °C
OCC(CO)(CO)NCCCNC(CO)(CO)CO	169 °C
Oc1ccccc1N1CCCCC1	75 °C
CC(C)OC(=O)NC(C(=O)NC(C)c1nc2ccc(F)cc2s1)C(C)C (stereo not given)	153 °C
O=CC1=C(Cl)c2cc(Cl)ccc2SC1	84 to 86 °C
Nc1cc(O)nc(N)n1	285 to 286 °C
O=Cc1cccn1-c1ccc(C(F)(F)F)cc1	97 to 98 °C
CC(=O)CCC(C)C	-74 °C
O=C(C=CN(O)c1ccccc1)c1ccc2c(c1)CCCC2	148 °C
CN1CC(c2ccccc2)(c2ccccc2)C(=O)c2c(cc(-c3ccccc3)c3ccccc23)C1=O	265 °C
N#CC(C#N)=C1Sc2nc3ccccc3nc2S1	221 °C
OCc1ccccc1S	32 °C
O=C(C(=S)Nc1ccc(I)cc1)c1ccccc1	139 °C
O=C1OC(=O)C23Cc4ccccc4CC12Cc1ccccc1C3 (stereo not given)	267 to 270 °C
ON=C(Cl)c1c(Cl)cccc1Cl	85 to 89 °C
CCOC(=O)c1csc(-c2ccc(Br)s2)n1	97 to 101 °C
Cc1nc(-c2cccc(C(=O)O)c2)no1	223 to 225 °C

SMILES	melting point
O=Cc1ccc(C=O)c([N+](=O)[O-])c1	97 °C
COc1ccc(-c2cc(=O)c3ccccc3o2)cc1OC	155 °C
O=c1[nH]nc([N+](=O)[O-])c(Cl)c1Cl	184 to 186 °C
O=C(O)C1=Cc2ccccc2OC1	150 °C
O=C(CBr)c1c(Cl)cc(C(F)(F)F)cc1Cl	46 to 48 °C
O=[N+]([O-])c1ccc(-c2ccno2)cc1	172 to 174 °C
CC12CCC(/C(=C/Nc3ccc(Cl)cc3)C1=O)C2(C)C (stereo not given)	167 to 169 °C
CC1=NNC(=N)Nc2c1c(=O)n(-c1ccccc1)c1ccccc21	227 °C
CCc1cccc(CC)c1NC(=O)CN(CC(=O)O)CC(=O)O	187 to 190 °C
CC1(C(=O)O)CCC(O)(CC(O)c2ccccc2)C1(C)C (stereo not given)	188 °C
OCCN(CCO)Cc1ccc(COc2ccccc2)cc1	88 °C
COC(=O)c1ccccc1CS(=O)(=O)NC(=O)Nc1nc(OC)cc(OC)n1	187 °C
ClC1=C(Cl)C2(Cl)C(CBr)CC1(Cl)C2(Cl)Cl (stereo not given)	77 °C
CC1CCCCC1O (stereo not given)	7 °C
Cc1cccc(C(=O)C(=O)c2ccccc2)n1	76.8 °C
CCN(Cc1ccncc1)C(=O)C(CO)c1ccccc1 (stereo not given)	96 °C
N#Cc1cccc(N2CCCC2)c1	84 to 85 °C
Nc1ccc(C(F)(F)F)cc1I	51 °C
COc1c(C(=O)O)csc1Cl	140 °C
CC(CC(=O)O)C(=O)O (stereo not given)	118 °C
Cc1ccc(C(O)c2cc(C)ccc2O)cc1 (stereo not given)	98 °C
CCOC(=O)c1[nH]c2cc3[nH]c(C(=O)OCC)c(OC(C)=O)c3cc2c1OC(C)=O	178 °C
Cc1c(C)c(C)c(CO)c(C)c1C	159 to 163 °C
CCOP(=O)(Cc1ccc(N)cc1)OCC	93 °C
C=CCn1c(S)nnc1CNC(=O)OC(C)(C)C	150 to 153 °C

SMILES	melting point
CC(=O)C(=O)Nc1ccccc1	100 °C
O=C1C(=C2Nc3ccccc3C2=O)Nc2ccccc21	300 °C
O=C(C(Cl)Cl)N(CCO)Cc1ccc(Oc2ccc([N+](=O)[O-])cc2)cc1	136 °C
CC1=C(C(=O)Nc2ccccc2)S(=O)(=O)CCO1	120 °C
COc1cc(F)ccc1C#N	76 °C
ON=C1CCCc2nnc3c(c21)CCCC3	269 to 271 °C
Oc1c(-c2ccccc2)cccc1-c1ccccc1	102 °C
OC(c1ccc(Br)cc1)C1CC1 (stereo not given)	57 to 57.5 °C
OC1(c2ccc(Cl)cc2)CCNCC1	139 to 141 °C
S=C=Nc1ccc(N=Nc2ccccc2)cc1	97 °C
C=CC(=O)OCC(CC)CCCC (stereo not given)	-90 °C
O=C(O)CN(CCN(CC(=O)O)CC(=O)O)CC(=O)O	220 °C
OCc1cccc(-c2ccsc2)c1	88 to 90 °C
Oc1c(Cl)cc(Cl)c2ccccc12	108 °C
COc1nc(C)nc(NC(=O)NS(=O)(=O)c2ccccc2Cl)n1	176 °C
COc1ccc(N)c(C)c1	29.5 °C
Cc1ccc(/N=N/c2c(N)nn3c(C(F)(F)F)cc(C)nc23)c(C)c1	220 °C
C=CCC(=O)N1CCN(C(=O)OCC2c3ccccc3-c3ccccc32)CC1	105 to 107 °C
C#CC1(O)CCC2C3CCC4=CC(=O)CCC4C3CCC21CC (stereo not given)	240 °C
Clc1cc2c(oc3c(Cl)cccc32)c(Cl)c1Cl	190 °C
CCC(c1ccc2cc(OC)ccc2c1)C(C)(C)C(=O)O (stereo not given)	140 °C
Cc1cc(C)c(CC(=O)CSC#N)c(C)c1	125 to 126 °C
O=[N+]([O-])c1ccc(Cl)c(CO)c1	77 to 78 °C
Clc1nc(Br)ns1	24 to 25 °C
Brc1ccc(-c2ccc(Br)cc2)cc1	167 °C

SMILES	melting point
CC(NC(=O)C(F)(F)C(F)(F)C(F)(F)C(F)(F)C(F)(F)C(F)(F)C(F)(F)C(F)(F)F)c1ccccc1 (stereo not given)	100 °C
COc1cc(-c2nnc3n2N=C(c2ccccc2)CS3)cc(OC)c1OC	197 °C
Cc1cc(O)c(C(C)C)cc1C1(c2cc(C(C)C)c(O)cc2C)OS(=O)(=O)c2ccccc21	221 °C
CC(=O)c1cc(C#N)c(=O)[nH]c1C	230 to 232 °C
CC(=O)c1ccc(S(=O)(=O)NC(=O)NC2CCCCC2)cc1	188 °C
Nc1ccccc1-c1cc2ccccc2[nH]1	153 °C
S=c1cc(-c2ccccc2)oc(-c2ccccc2)c1	170 °C
CC(=O)C1CCC2C3CCC4CC(=O)CCC4(C)C3CCC12C (stereo not given)	200 °C
O=C1C(=O)C(Cl)=C(Cl)C(Cl)=C1Cl	125 to 129 °C
CSC(S)=Nc1ccc(Br)cc1	133 to 134 °C
N#CCCNC1CCCCC1	122 to 124 °C
C#CC1(OC(N)=O)CCCCC1	96 °C
O=C(Nc1ccccc1)N(C(=O)C1Cc2ccccc21)c1ccccc1 (stereo not given)	158 °C
O=[N+]([O-])c1ccc(C=Cc2ccc([N+](=O)[O-])cc2)cc1	183 °C
N#Cc1coc2ccccc2c1=O	174 to 178 °C
O=C(Nc1nccs1)C(C(F)(F)F)C(F)(F)F	148 °C
Nc1ccccc1-n1ccnc1	106 to 107 °C
CSC(=NC#N)Nc1ccccc1	185 to 186 °C
Cc1ccsc1C(=O)O	147 °C
COC(=O)[C@@H](N)Cc1ccc(O)cc1	137 °C
c1ccc2c(c1)CCc1ccccc1C2	72 to 76 °C
Cc1nc(Cl)c(C(N)=O)c(C)c1Cl	172 °C
CC12CCC(=O)C=C1C=CC1C2CCC2(C)C1CCC21CCC(=O)O1 (stereo not given)	150 °C
Cc1cc(Br)c2c(c1N)C(=O)c1ccccc1C2=O	245 to 252 °C
O=C(O)Cc1ccc(O)c(F)c1	132 to 134 °C

SMILES	melting point
COc1ccc([N+](=O)[O-])c(SC(C)C(=O)O)n1 (stereo not given)	196 to 199 °C
C=C1C2CCC3(O)C4(C)CCCC(C)(C(=O)OC5OC(CO)C(O)C(O)C5O)C4CCC3(C2)C1O (stereo not given)	218 to 220 °C
CC(C=O)=CN	101 to 103 °C
CNc1ccc2oc(CC3OC4(CCC3C)OC(C(C)C(=O)c3ccc[nH]3)C(C)CC4C)nc2c1C(=O)O (stereo not given)	182 °C
N#CCCC1CCCCCCCCCCC1=O (stereo not given)	60 to 61 °C
CC(C)CC(C)(C)CC(C)(C)CC(C)(C)C	-98 °C
COc1ccc(C=O)cc1[N+](=O)[O-]	99 °C
CC(C)(C)N(NC(=O)c1ccccc1)C(=O)c1ccccc1Cl	162 °C
COc1cccc(C(=O)N(NC(=O)c2ccccc2)C(C)(C)C)c1	188 °C
N[C@@H](CCC(=O)N[C@@H](CCC(=O)O)C(=O)O)C(=O)O	179 to 182 °C
O=c1ncn2nc(Sc3ccccc3)ccc2c1-c1c(Cl)cccc1Cl	262 to 265 °C
O=C(C1CCNCC1)N1CCCCCC1	41 to 47 °C
Cc1cc(C)n2nc(N)c(/N=N/c3cccnc3)c2n1	245 °C
CS(=O)(=O)c1csc(C(=O)O)c1Cl	234 to 236 °C
CS(=O)(=O)Oc1ccccc1	62 to 63 °C
COc1ccc(/C=N/c2ccc(-c3ccc(/N=N/c4ccccc4)cc3)cc2)cc1	214 to 215 °C
Nc1ccc([N+](=O)[O-])cc1O	208 °C
CN1C(=O)c2ccc([N+](=O)[O-])cc2C1=O	178 to 179 °C
CCOC(=O)C(CCc1ccccc1)NC1CCc2ccccc2N(CC(=O)O)C1=O (stereo not given)	148 °C
COc1ccc(F)c(O)c1F	75 °C
CC(=O)OCc1cn(C(C)=O)c2ccccc12	85 to 86 °C
Cc1nccn1C	37 to 39 °C
CCc1c(C)cc(C)cc1C	-16 °C
CC1(C)CC(=O)c2c(C(=O)c3ccc(Cl)cc3)noc2C1	126 °C
Nc1ccc(Cl)cc1N	76 °C
